The nature of the data set: Solubility of cinacalcet in water as a function of pH. Format: physicochemical. Here is the method:
Calcium receptor-active compounds are known in the art. One example of a calcium receptor-active compound is cinacalcet HCl, which is described, for example, in U.S. Pat. No. 6,001,884. Such calcium receptor-active compounds may be insoluble or sparingly soluble in water, particularly in their non-ionized state. […] However, when the pH is about 1, the solubility decreases to about 0.1 mg/mL. Such limited solubility can reduce the number of formulation and delivery options available for these calcium receptor-active compounds. Limited water solubility can also result in low bioavailability of the compounds.

Each structure is given as a SMILES string. In brackets after ≈: the same amount, converted by molar mass. Read-outs that look alike come from different tables or passages of the source.

This passage reports solubility results from US7829595B2, “Rapid dissolution formulation of a calcium receptor-active compound” (Amgen Inc., priority 2003, dated 2010).

Consider `C[C@@H](NCCCc1cccc(C(F)(F)F)c1)c1cccc2ccccc12` [cinacalcet, N-(1-(R)-(1-naphthyl)ethyl]-3-[3-(trifluoromethyl)phenyl]-1-aminopropane], for which the solubility (as a rule, how much of the substance goes into solution per volume) runs as follows: (aqueous buffer, pH ranges from about 3 to about 5, read-out: solubility) roughly 1600 µg/mL (≈ 4480 µM); (pH 1, simulated gastric fluid, pH about 1, read-out: solubility) roughly 100 µg/mL (≈ 280 µM); (pH 7, water, neutral pH, read-out: solubility in water) less than 1 µg/mL.
